Laboratory results as given in patent US20140107170A1, “COMPOSITION COMPRISING ANGIOTENSIN II RECEPTOR ANTAGONIST AND ANTIOXIDANT FOR MAINTAINING AND/OR IMPROVING SKIN PROPERTIES” (priority 2011, published 2014).

Tested on: Dermal fibroblast cells
Test: Dermal fibroblast survival under oxidative stress (H2O2), MTS viability test, Example 3
Format: cell-based
Settings: preincubation till the next day, H2O2 (1 mmol) 15 minutes, MTS after 24 hours, valsartan 1.0 μmol, vitamin A 1 μmol, vitamin C 100 μmol, vitamin E 10 μmol
Experimental: Dermal fibroblast cells were grown in Advanced MEM supplemented with antibiotics (penicillin-streptomycin), 5% fetal bovine serum and L-glutamine (2 mmol/l) at 37° C. in a CO2 incubator (5% CO2, 95% air, 95% relative humidity. Cells were detached with Tryple™select. For experiments the cells were seeded in 96-well microtitre plates at a density 5×10^3 cells/well (5×10^4 cells/ml). Two hours after seeding, when the cells attached to the surface, the medium was replaced with the medium supplemented with vitamins (ACE), valsartan or their combination. The cells were incubated till the next day and then treated with H2O2 (1 mmol) for 15 minutes. After the treatment with H2O2 the cells were washed three times with PBS and than incubated in medium for 24 hours. Then the MTS viability test was performed.

CCCCC(=O)N(Cc1ccc(-c2ccccc2-c2nnn[nH]2)cc1)[C@H](C(=O)O)C(C)C [Valsartan, valsartan]
% of survival after treatment with H2O2: 79%
% of survival after treatment with H2O2 (listed as valsartan): 79%
